The inhibition is the relative decrease from the control value, in per cent. In general, IC50 refers to the concentration that gives 50% inhibition.

Activity calls are given as the source filed them. The rule behind the calls is not given here.

What all share (format): cell-based
The target in data set [1] is T1, Toll-like receptor 1/2 (Homo sapiens, UniProt O60603+Q15399). The data set is described as follows: Antagonist activity at FLAG-tagged human TLR2/TLR1 expressed in HEK293 cells co-expressing pGL3-Elam.luc assessed as inhibition of Pam3CSK4-stimulated NF-kappaB activation at 50 uM preincubated for 1 hr followed by Pam3CSK4 stimulation for 5 hrs by luciferase reporter gene assay relative to control. On the technique in general: Reporter assays use an easily measured gene product as a stand-in for the process of interest.
T1 sequence (O60603 whole entry): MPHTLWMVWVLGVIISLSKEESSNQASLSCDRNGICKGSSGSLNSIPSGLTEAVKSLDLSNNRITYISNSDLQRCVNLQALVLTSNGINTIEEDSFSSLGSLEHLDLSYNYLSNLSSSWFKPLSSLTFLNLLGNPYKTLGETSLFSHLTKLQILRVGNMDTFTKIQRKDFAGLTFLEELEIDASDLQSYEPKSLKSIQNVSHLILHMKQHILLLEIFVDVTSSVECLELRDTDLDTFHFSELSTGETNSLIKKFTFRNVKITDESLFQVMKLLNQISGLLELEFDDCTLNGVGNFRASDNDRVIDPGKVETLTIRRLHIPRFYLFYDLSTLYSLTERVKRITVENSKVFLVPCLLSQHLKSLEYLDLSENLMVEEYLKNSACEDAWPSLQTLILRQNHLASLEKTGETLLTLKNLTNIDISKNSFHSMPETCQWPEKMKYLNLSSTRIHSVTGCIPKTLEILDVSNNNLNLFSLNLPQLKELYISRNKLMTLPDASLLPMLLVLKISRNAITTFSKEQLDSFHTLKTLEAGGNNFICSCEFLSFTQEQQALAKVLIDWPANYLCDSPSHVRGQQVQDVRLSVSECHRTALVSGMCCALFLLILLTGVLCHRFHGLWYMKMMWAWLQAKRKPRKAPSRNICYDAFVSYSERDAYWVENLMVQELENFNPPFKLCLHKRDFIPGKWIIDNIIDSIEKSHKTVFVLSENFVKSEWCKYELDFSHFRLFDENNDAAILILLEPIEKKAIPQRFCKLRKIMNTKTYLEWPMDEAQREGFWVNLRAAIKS
T1 sequence (Q15399 whole entry): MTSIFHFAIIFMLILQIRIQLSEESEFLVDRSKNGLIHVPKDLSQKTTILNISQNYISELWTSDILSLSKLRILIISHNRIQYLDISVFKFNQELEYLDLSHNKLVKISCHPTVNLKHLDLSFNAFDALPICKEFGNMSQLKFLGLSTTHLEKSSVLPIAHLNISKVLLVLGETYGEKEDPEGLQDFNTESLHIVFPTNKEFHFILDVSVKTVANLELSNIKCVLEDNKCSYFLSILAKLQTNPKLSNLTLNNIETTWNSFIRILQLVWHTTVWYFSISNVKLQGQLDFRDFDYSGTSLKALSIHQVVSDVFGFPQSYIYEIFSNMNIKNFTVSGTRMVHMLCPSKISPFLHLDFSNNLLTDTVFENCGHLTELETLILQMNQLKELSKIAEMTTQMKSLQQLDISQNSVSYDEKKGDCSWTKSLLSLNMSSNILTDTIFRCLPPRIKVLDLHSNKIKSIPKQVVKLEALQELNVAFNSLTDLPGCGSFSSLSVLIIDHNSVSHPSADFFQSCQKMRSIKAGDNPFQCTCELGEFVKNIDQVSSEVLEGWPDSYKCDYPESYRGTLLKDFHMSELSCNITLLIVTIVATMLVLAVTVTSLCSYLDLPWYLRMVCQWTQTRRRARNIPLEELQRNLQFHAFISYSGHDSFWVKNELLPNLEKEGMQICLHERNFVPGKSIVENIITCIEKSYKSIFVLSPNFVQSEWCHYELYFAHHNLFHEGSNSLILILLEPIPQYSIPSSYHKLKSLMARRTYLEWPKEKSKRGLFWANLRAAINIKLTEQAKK

Data set [2] addresses T1, Toll-like receptor 1/2. The data set is described as follows: Antagonist activity at FLAG-tagged human TLR2/TLR1 expressed in HEK293 cells assessed as inhibition of Pam3CSK4-stimulated MAPK p38 phosphorylation at Thr180/Tyr182 residues at 25 uM preincubated for 1 hr followed by Pam3CSK4 stimulation for 35 mins by immunoblot analysis. In general terms: A western blot detects proteins with antibodies after separation by electrophoresis.

The target in data set [3] is T1, Toll-like receptor 1/2. Briefly: Antagonist activity at FLAG-tagged human TLR2/TLR1 expressed in HEK293 cells assessed as inhibition of Pam3CSK4-stimulated JNK phosphorylation at Thr183/Tyr185 residues at 25 uM preincubated for 1 hr followed by Pam3CSK4 stimulation for 35 mins by immunoblot analysis.
Data set [4] relates to BMDM. The data set is described as follows: Cytotoxicity against mouse BMDM at 100 uM after overnight incubation by CCK8 assay. In general terms: Tetrazolium assays rely on reduction of a dye to a coloured formazan, in cell work by metabolically active cells.
Data set [5] has as its system HEK293. Briefly: Cytotoxicity against HEK293 cells at 100 uM after overnight incubation by CCK8 assay. The settings on record: human, hek293, 100 µM.
Data set [6] has as its target TLR7 and TLR8 (Mus musculus) (UniProt P58681+P58682). The data set is described as follows: Antagonist activity at TLR7/TLR8 in mouse BMDM assessed as inhibition of R848-stimulated TNFalpha production at 25 uM preincubated for 1 hr followed by R848 stimulation for 11 hrs by ELISA.
The target in data set [7] is TLR2/TLR6 (Homo sapiens) (UniProt O60603+Q9Y2C9). Briefly: Antagonist activity at FLAG-tagged human TLR2/TLR6 expressed in HEK293 cells co-expressing pGL3-Elam.luc assessed as inhibition of Pam2CSK4-stimulated NF-kappaB activation preincubated for 1 hr followed by Pam2CSK4 stimulation for 5 hrs by luciferase reporter gene assay.
Data set [8] concerns the target T1, Toll-like receptor 1/2. Briefly: Antagonist activity at FLAG-tagged human TLR2/TLR1 expressed in HEK293 cells co-expressing pGL3-Elam.luc assessed as inhibition of Pam3CSK4-stimulated NF-kappaB activation preincubated for 1 hr followed by Pam3CSK4 stimulation for 5 hrs by luciferase reporter gene assay.
In data set [9] the target is T1, Toll-like receptor 1/2. The data set is described as follows: Antagonist activity at FLAG-tagged human TLR2/YFP-tagged TLR1 expressed in HEK293 cells assessed as inhibition of Pam3CSK4-stimulated TLR1/TLR2 heterodimerization at 25 uM preincubated for 1 hr followed by Pam3CSK4 stimulation for 15 mins by immunoblot analysis.
Data set [10] has as its target T1, Toll-like receptor 1/2. The data set is described as follows: Antagonist activity at TLR2/TLR1 in human PBMC assessed as inhibition of Pam3CSK4-stimulated TNFalpha production at 50 uM preincubated with cells followed by overnight Pam3CSK4 stimulation by ELISA relative to control.
In data set [11] the target is T2, Toll-like receptor 1/2 (Mus musculus) (UniProt Q9QUN7+Q9EPQ1). Briefly: Antagonist activity at TLR2/TLR1 in mouse BMDM assessed as inhibition of Rhodamine-labeled Pam3CSK4-stimulated receptor internalization at 50 uM preincubated for 1 hr followed by Rhodamine-Pam3CSK4 stimulation for 20 mins by DAPI staining based phase contrast fluorescence microscopic method.

In data set [12] the target is T2, Toll-like receptor 1/2 (Mus musculus). Briefly: Antagonist activity at TLR2/TLR1 in mouse BMDM assessed as Rhodamine-labeled Pam3CSK4-stimulated receptor internalization at 50 uM preincubated for 1 hr followed by Rhodamine-Pam3CSK4 stimulation for 20 mins by FACS analysis relative to control. Further details: scale not given: the % may be the effect or the level left.

Data set [13] concerns the target T1, Toll-like receptor 1/2. The data set is described as follows: Antagonist activity at TLR2/TLR1 in human THP1 cells assessed as inhibition of Pam3CSK4-stimulated non-canonical NF-kB pathway by measuring reduction in p52 level at 50 uM preincubated for 1 hr followed by Pam3CSK4 stimulation for 2 hrs by immunoblot analysis.
The target in data set [14] is T1, Toll-like receptor 1/2. The data set is described as follows: Antagonist activity at FLAG-tagged human TLR2/TLR1 expressed in HEK293 cells assessed as inhibition of Pam3CSK4-stimulated MAPK p38 phosphorylation at Thr180/Tyr182 residues at 50 uM preincubated for 1 hr followed by Pam3CSK4 stimulation for 35 mins by immunoblot analysis.
The target in data set [15] is T1, Toll-like receptor 1/2. Briefly: Antagonist activity at FLAG-tagged human TLR2/TLR1 expressed in HEK293 cells co-expressing pGL3-Elam.luc assessed as Pam3CSK4-stimulated NF-kappaB activation at 50 uM preincubated for 1 hr followed by Pam3CSK4 stimulation for 5 hrs by luciferase reporter gene assay relative to control. Also noted: scale not given: the % may be the effect or the level left.

The target of data set [16] is T1, Toll-like receptor 1/2. The data set is described as follows: Antagonist activity at FLAG-tagged human TLR2/TLR1 expressed in HEK293 cells assessed as inhibition of Pam3CSK4-stimulated IkBalpha degradation at 50 uM preincubated for 1 hr followed by Pam3CSK4 stimulation for 35 mins by immunoblot analysis.
In data set [17] the target is T3, Toll-like receptor 3 (Mus musculus) (UniProt Q99MB1).
T3 sequence (whole entry): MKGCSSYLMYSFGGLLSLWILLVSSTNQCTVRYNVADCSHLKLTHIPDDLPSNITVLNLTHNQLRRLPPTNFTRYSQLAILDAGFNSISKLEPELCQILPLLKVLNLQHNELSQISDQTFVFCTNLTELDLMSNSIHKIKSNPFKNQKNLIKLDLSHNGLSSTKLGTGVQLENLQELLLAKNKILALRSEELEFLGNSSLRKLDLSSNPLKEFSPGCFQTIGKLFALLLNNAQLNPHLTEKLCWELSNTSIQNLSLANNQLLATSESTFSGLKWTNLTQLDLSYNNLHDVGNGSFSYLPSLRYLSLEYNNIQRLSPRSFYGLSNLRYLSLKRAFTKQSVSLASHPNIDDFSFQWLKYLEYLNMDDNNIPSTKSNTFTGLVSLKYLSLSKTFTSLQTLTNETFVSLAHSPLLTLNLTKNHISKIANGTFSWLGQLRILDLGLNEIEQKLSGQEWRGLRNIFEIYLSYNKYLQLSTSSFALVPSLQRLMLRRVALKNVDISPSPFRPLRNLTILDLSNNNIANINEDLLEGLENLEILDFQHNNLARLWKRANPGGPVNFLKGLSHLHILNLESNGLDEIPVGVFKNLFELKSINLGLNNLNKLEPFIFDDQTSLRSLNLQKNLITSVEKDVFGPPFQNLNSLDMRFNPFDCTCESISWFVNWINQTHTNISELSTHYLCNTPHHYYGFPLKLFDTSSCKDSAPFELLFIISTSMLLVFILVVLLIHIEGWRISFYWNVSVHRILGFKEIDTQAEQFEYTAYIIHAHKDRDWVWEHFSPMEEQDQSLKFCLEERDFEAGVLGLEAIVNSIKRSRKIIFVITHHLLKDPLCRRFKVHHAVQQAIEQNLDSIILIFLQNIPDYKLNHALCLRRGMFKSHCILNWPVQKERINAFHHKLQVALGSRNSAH
The data set is described as follows: Antagonist activity at TLR3 in mouse BMDM assessed as inhibition of poly I:C-stimulated TNFalpha production at 25 uM preincubated for 1 hr followed by poly I:C stimulation for 11 hrs by ELISA.

The target in data set [18] is T2, Toll-like receptor 1/2 (Mus musculus). Briefly: Antagonist activity at TLR2/TLR1 in mouse BMDM assessed as inhibition of Pam3CSK4-stimulated TNFalpha production by measuring TNFalpha level at 25 uM preincubated for 1 hr followed by Pam3CSK4 stimulation for 11 hrs by ELISA relative to control. Further details: scale not given: the % may be the effect or the level left.

The target of data set [19] is T1, Toll-like receptor 1/2. Briefly: Antagonist activity at FLAG-tagged human TLR2/TLR1 expressed in HEK293 cells assessed as inhibition of Pam3CSK4-stimulated JNK phosphorylation at Thr183/Tyr185 residues at 50 uM preincubated for 1 hr followed by Pam3CSK4 stimulation for 35 mins by immunoblot analysis.
Data set [20] has as its target T1, Toll-like receptor 1/2. The data set is described as follows: Antagonist activity at TLR2/TLR1 in human PBMC assessed as inhibition of Pam3CSK4-stimulated IL-10 production by measuring IL-10 level at 100 uM preincubated with cells followed by overnight Pam3CSK4 stimulation by ELISA (reference value: 794 pg/ml).
In data set [21] the test system is THP-1. The data set is described as follows: Cytotoxicity against human THP1 cells at 100 uM after overnight incubation by CCK8 assay. To be noted: thp-1, 100 µM.
Data set [22] has as its target T4, Toll-like receptor 4 (Mus musculus) (UniProt Q9QUK6).
T4 sequence (whole entry): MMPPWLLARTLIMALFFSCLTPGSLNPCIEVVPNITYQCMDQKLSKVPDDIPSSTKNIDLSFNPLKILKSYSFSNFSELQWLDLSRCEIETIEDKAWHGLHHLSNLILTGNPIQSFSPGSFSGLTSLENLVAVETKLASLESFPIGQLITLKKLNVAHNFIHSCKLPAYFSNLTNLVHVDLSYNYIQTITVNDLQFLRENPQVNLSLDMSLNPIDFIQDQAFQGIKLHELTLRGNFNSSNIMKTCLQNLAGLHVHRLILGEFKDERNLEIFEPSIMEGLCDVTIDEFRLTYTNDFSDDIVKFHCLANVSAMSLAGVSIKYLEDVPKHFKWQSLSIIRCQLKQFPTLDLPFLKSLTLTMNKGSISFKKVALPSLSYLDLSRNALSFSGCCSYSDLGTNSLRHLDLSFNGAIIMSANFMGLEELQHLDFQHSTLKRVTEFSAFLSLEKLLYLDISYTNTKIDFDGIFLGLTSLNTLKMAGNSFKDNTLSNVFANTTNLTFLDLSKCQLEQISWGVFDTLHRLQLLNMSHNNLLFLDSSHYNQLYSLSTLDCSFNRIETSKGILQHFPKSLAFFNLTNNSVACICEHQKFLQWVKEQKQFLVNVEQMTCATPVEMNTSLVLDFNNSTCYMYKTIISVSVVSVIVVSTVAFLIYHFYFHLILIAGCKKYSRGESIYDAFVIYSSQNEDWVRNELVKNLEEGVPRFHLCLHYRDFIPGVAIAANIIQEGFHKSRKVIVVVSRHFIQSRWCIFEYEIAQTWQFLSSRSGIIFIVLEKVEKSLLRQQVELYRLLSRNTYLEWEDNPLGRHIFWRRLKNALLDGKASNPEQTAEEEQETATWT
Briefly: Antagonist activity at TLR4 in mouse BMDM assessed as inhibition of LPS-stimulated TNFalpha production at 25 uM preincubated for 1 hr followed by LPS stimulation for 11 hrs by ELISA.

The target of data set [23] is T2, Toll-like receptor 1/2 (Mus musculus). Briefly: Antagonist activity at TLR2/TLR1 in mouse BMDM assessed as inhibition of Rhodamine-labeled Pam3CSK4-stimulated receptor internalization at 1 uM preincubated for 1 hr followed by Rhodamine-Pam3CSK4 stimulation for 20 mins by FACS analysis.
Data set [24] concerns the target T1, Toll-like receptor 1/2. The data set is described as follows: Antagonist activity at TLR2/TLR1 in human PBMC assessed as inhibition of Pam3CSK4-stimulated IL-10 production at 100 uM preincubated with cells followed by overnight Pam3CSK4 stimulation by ELISA.

Sequence of TLR7 and TLR8 (Mus musculus) (P58681 whole entry, looked up): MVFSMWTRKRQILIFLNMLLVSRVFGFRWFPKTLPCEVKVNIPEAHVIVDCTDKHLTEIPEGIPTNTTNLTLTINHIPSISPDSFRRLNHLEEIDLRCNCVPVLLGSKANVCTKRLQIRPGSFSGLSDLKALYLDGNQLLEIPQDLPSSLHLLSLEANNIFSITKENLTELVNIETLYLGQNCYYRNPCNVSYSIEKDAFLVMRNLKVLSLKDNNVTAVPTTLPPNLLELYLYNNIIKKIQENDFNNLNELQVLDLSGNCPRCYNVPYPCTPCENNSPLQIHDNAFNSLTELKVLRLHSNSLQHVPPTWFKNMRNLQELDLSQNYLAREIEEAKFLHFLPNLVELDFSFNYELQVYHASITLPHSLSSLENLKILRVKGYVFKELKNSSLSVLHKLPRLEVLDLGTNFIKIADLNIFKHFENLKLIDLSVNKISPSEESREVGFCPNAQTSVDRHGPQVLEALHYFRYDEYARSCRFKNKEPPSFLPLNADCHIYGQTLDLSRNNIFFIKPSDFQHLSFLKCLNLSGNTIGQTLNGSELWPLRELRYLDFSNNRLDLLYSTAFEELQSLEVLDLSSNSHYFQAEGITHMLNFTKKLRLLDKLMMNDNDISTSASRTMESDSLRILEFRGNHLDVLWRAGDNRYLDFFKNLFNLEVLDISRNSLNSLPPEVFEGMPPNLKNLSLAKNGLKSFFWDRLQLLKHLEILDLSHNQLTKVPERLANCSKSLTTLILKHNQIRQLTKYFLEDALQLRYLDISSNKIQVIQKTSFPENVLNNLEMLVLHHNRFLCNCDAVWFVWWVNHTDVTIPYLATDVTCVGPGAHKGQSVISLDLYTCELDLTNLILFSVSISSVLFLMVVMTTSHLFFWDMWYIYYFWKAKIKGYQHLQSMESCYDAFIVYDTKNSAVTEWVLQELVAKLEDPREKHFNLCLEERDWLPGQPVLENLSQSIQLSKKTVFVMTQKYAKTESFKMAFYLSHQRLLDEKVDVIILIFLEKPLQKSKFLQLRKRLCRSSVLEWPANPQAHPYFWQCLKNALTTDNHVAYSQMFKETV
Sequence of TLR7 and TLR8 (Mus musculus) (P58682 whole entry, looked up): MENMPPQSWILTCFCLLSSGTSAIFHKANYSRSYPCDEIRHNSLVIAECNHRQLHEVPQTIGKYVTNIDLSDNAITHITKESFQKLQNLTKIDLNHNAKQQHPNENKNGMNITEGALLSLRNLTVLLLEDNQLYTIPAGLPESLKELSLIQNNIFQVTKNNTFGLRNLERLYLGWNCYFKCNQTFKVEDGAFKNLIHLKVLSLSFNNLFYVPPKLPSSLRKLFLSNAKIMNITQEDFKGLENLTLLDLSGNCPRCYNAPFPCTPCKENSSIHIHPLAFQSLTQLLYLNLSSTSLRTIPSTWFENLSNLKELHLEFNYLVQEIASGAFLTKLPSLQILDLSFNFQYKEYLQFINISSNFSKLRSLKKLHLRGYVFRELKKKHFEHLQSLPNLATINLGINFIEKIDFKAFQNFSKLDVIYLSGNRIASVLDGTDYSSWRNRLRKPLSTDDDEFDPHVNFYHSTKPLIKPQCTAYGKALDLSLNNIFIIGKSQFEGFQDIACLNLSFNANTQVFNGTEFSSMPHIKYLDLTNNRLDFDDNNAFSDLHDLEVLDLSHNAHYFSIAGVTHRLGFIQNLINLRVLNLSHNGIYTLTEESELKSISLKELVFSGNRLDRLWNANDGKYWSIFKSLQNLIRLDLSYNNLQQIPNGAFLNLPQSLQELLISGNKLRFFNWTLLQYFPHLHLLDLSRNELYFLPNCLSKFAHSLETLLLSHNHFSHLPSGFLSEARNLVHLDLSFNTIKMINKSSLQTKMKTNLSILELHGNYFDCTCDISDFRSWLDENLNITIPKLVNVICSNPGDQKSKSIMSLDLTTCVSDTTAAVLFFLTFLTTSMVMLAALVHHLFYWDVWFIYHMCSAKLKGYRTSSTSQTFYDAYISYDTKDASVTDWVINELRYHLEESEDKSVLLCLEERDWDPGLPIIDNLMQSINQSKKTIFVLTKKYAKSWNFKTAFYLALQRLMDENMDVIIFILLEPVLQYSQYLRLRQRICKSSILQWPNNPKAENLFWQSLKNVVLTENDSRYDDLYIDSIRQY

As for H-VETLTIRRL-OH, in [1], the inhibition worked out at 86%.
Still for that read-out and setting: for H-ENLMVEEY-OH the value was 66%; for H-VVSDVFGFP-OH, “Active”.
On the same count and under the same terms, to H-TIRRLHIPR-OH belongs 84.1%; to H-ENSKVFLVPC-OH, “Active”.
In the case of `Cc1cc(NC(=O)NC(=O)c2ccccc2N(C)C)ccc1Oc1ncc(Br)cn1`, the inhibition entry in data set [2] and in data set [3] was “Active” each time.
In the case of H-ENLMVEEYLK-OH, the Activity entry in data set [4] was “Non-Toxic”; in data set [5], “Non-Toxic”; in data set [12], 70.2%; in data set [15] it was 51%; in data set [18], 80%; in data set [20], 727 pg/mL. The Activity result in data set [21] is given as “Non-Toxic”. Also, the inhibition result in data set [6], in data set [7], in [16], in data set [17] and in data set [22] was “inactive” throughout. For the same compound, the IC50 in [8] was 45.8 µM. For the same compound, the values for the inhibition result in data set [8] and in data set [10] were “Dose-dependent effect” and 50%, respectively. Also, the inhibition entry in data set [9], in [11], in data set [13], in [14] and in data set [19] was “Active” each time.
As to H-SENLMVEEYLK-OH, the inhibition in data set [1] stood at 56%.
As to H-RLHIPRFYL-OH, the inhibition in data set [1] is 81.9%.
In the case of `C=C1[C@@H](C)[C@H]2[C@H](Cc3ccccc3)NC(=O)[C@]23[C@H](OC(C)=O)/C=C/[C@@](C)(O)C(=O)[C@@H](C)C/C=C/[C@H]3[C@@H]1O`, the inhibition entry in data set [23] is “Active”.
As for H-HIPRFYLFYD-OH, the Activity entry was “Non-Toxic” in [4]; “Non-Toxic” in data set [5]; 37.4% in [12]; 51% in data set [15]; 70% in data set [18]; “Non-Toxic” in data set [21]. The inhibition entry in data set [6], in [7], in [16], in data set [17] and in data set [22] was “inactive” each time. Also, the inhibition result in [24], in data set [9], in data set [11], in [13], in data set [14] and in data set [19] was “Active” each time. Besides, the IC50 in [8] is 49.2 µM. In addition, the inhibition entry in [8] is “Dose-dependent effect”; in data set [10], 50%.
H-LHIPRFYLFYD-OH: in data set [1], the inhibition came to 56%.
In the case of H-HIPRFYLFY-OH, the inhibition in data set [1] is 56%.

Source of the values: ChEMBL document CHEMBL4229513, “Decoy peptides derived from the extracellular domain of toll-like receptor 2 (TLR2) show anti-inflammatory properties” (Bioorg Med Chem, 2018).
